Test results: ChEMBL document CHEMBL6078667, “Synthesis, Biological Evaluation, and Mechanistic Insights of Rubrolide Analogues as Antitumor Agents” (J Nat Prod, 2024)

How the values were obtained:
U-87 MG [1] = assay: Cytotoxicity against human U-87 MG cells assessed as survival rate at 10 uM measured after 72 hrs by MTT assay relative to control; assay type: functional, U-87MG ATCC; conditions: read-out: Survival
MCF7 [2] = assay: Cytotoxicity against human MCF7 cells assessed as survival rate at 10 uM measured after 72 hrs by MTT assay relative to control; assay type: functional; conditions: read-out: Survival
HCT-116 [3] = assay: Cytotoxicity against human HCT-116 cells assessed as survival rate at 10 uM measured after 72 hrs by MTT assay relative to control; assay type: functional; conditions: read-out: Survival
HT-29 = assay: Antitumor activity against human HT-29 cells; assay type: functional, cell-based
U-87 MG [4] = assay: Cytotoxicity against human U-87 MG cells assessed as inhibition of cell growth at 10 uM measured after 72 hrs by MTT assay relative to control; assay type: functional, U-87MG ATCC
MKN-45 [5] = assay: Cytotoxicity against human MKN-45 cells assessed as inhibition of cell growth at 10 uM measured after 72 hrs by MTT assay relative to control; assay type: functional
HCT-116 [6] = assay: Cytotoxicity against human HCT-116 cells assessed as inhibition of cell growth incubated for 72 hrs by MTT assay; assay type: functional, cell-based; conditions: HCT-116, 72 h
HeLa [7] = assay: Cytotoxicity against human HeLa cells assessed as inhibition of cell growth at 10 uM measured after 72 hrs by MTT assay relative to control; assay type: functional
MGC-803 [8] = assay: Cytotoxicity against human MGC-803 cells assessed as inhibition of cell growth incubated for 72 hrs by MTT assay; assay type: functional, cell-based; conditions: MGC-803, 72 h
MGC-803 [9] = assay: Cytotoxicity against human MGC-803 cells assessed as inhibition of cell growth at 10 uM measured after 72 hrs by MTT assay relative to control; assay type: functional
MCF7 [10] = assay: Cytotoxicity against human MCF7 cells assessed as inhibition of cell growth incubated for 72 hrs by MTT assay; assay type: functional, cell-based; conditions: MCF7, 72 h
MKN-45 [11] = assay: Cytotoxicity against human MKN-45 cells assessed as inhibition of cell growth incubated for 72 hrs by MTT assay; assay type: functional, cell-based; conditions: MKN-45, 72 h
U-87 MG [12] = assay: Cytotoxicity against human U-87 MG cells assessed as inhibition of cell growth incubated for 72 hrs by MTT assay; assay type: functional, cell-based, U-87MG ATCC
[13] = Cytotoxicity against HHL-5 cells assessed as inhibition of cell growth incubated for 72 hrs by MTT assay; assay type: toxicity, cell-based; conditions: human
HCT-116 [14] = assay: Cytotoxicity against human HCT-116 cells assessed as inhibition of cell growth at 10 uM measured after 72 hrs by MTT assay relative to control; assay type: functional
MCF7 [15] = assay: Cytotoxicity against human MCF7 cells assessed as inhibition of cell growth at 10 uM measured after 72 hrs by MTT assay relative to control; assay type: functional
HeLa [16] = assay: Cytotoxicity against human HeLa cells assessed as inhibition of cell growth incubated for 72 hrs by MTT assay; assay type: functional, cell-based
K562 = assay: Antitumor activity against human K562 cells; assay type: functional, cell-based
A549 = assay: Antitumor activity against human A549 cells; assay type: functional, cell-based
P388 = assay: Antitumor activity against mouse P388 cells; assay type: functional, cell-based

**Q.** Which results are given for `COc1ccc(C2=CC(=O)O/C2=C\c2ccc(C(C)(C)C)cc2)cc1`?
**A.** viability at 10 µM (U-87 MG [1]): 109%; viability at 10 µM (MCF7 [2]): 60.2%; viability at 10 µM (HCT-116 [3]): 98.9%

**Q.** Which IC50 (HT-29) does the source give for `O=C1O/C(=C\c2ccc(O)c(Br)c2)C(c2ccc(O)c(Br)c2)=C1Cl` here?
**A.** The IC50 was 2.6 µM.

**Q.** Which viability at 10 µM (U-87 MG [1]) does the source give for `COc1ccc(C2=CC(=O)O/C2=C\c2ccc(Br)cc2)cc1` here?
**A.** The viability at 10 µM was 103%.

**Q.** And the viability at 10 µM (MCF7 [2])?
**A.** Its viability at 10 µM is 107%.

**Q.** And the viability at 10 µM (HCT-116 [3])?
**A.** The viability at 10 µM was 107%.

**Q.** Which viability at 10 µM (U-87 MG [1]) does the source give for `COc1ccc(C2=CC(=O)O/C2=C\c2ccc(C)cc2)cc1` here?
**A.** The viability at 10 µM was 94.1%.

**Q.** And the viability at 10 µM (MCF7 [2])?
**A.** The viability at 10 µM was 101%.

**Q.** And the viability at 10 µM (HCT-116 [3])?
**A.** Its viability at 10 µM is 87.3%.

**Q.** With `COc1ccc(/C=C2\OC(=O)C=C2c2ccc(OC)cc2)cc1` as the molecule, how does the inhibition at 10 µM (U-87 MG [4]) read?
**A.** Its inhibition at 10 µM is over 50%.

**Q.** What about the inhibition at 10 µM (MKN-45 [5]) of the same molecule?
**A.** The inhibition at 10 µM was over 50%.

**Q.** What about the IC50 (HCT-116 [6]) of the same molecule?
**A.** Its IC50 is 3.7 µM.

**Q.** And the inhibition at 10 µM (HeLa [7])?
**A.** Its inhibition at 10 µM is over 50%.

**Q.** What about the viability at 10 µM (U-87 MG [1]) of the same molecule?
**A.** The viability at 10 µM was 39.1%.

**Q.** What about the IC50 (MGC-803 [8]) of the same molecule?
**A.** Its IC50 is 6.2 µM.

**Q.** And the viability at 10 µM (MCF7 [2])?
**A.** The viability at 10 µM was 25.9%.

**Q.** What about the inhibition at 10 µM (MGC-803 [9]) of the same molecule?
**A.** Its inhibition at 10 µM is over 50%.

**Q.** And the IC50 (MCF7 [10])?
**A.** Its IC50 is 4.3 µM.

**Q.** What about the IC50 (MKN-45 [11]) of the same molecule?
**A.** Its IC50 is 5.2 µM.

**Q.** And the IC50 (U-87 MG [12])?
**A.** The IC50 was 11.9 µM.

**Q.** What about the IC50 at 72 h [13] of the same molecule?
**A.** Its IC50 at 72 h is 3.9 µM.

**Q.** What about the viability at 10 µM (HCT-116 [3]) of the same molecule?
**A.** Its viability at 10 µM is 26.5%.

**Q.** And the inhibition at 10 µM (HCT-116 [14])?
**A.** The inhibition at 10 µM was over 50%.

**Q.** What about the inhibition at 10 µM (MCF7 [15]) of the same molecule?
**A.** The inhibition at 10 µM was over 50%.

**Q.** And the IC50 (HeLa [16])?
**A.** Its IC50 is 2.2 µM.

**Q.** Which results are given for `COc1ccc(C2=CC(=O)O/C2=C\c2ccccc2)cc1`?
**A.** inhibition at 10 µM (U-87 MG [4]): > 50%; inhibition at 10 µM (MKN-45 [5]): > 50%; IC50 (HCT-116 [6]): 1.9 µM; inhibition at 10 µM (HeLa [7]): > 50%; viability at 10 µM (U-87 MG [1]): 52%; IC50 (MGC-803 [8]): 5 µM; viability at 10 µM (MCF7 [2]): 29.7%; inhibition at 10 µM (MGC-803 [9]): > 50%; IC50 (MCF7 [10]): 1.2 µM; IC50 (MKN-45 [11]): 1 µM; IC50 (U-87 MG [12]): 13.7 µM; IC50 at 72 h [13]: 1.6 µM; viability at 10 µM (HCT-116 [3]): 32.5%; inhibition at 10 µM (HCT-116 [14]): > 50%; inhibition at 10 µM (MCF7 [15]): > 50%; IC50 (HeLa [16]): 1.8 µM

**Q.** For `CC(C)=CCc1cc(/C=C2\OC(=O)C=C2c2ccc(O)cc2)ccc1O`, which IC50 (K562) is on record?
**A.** Its IC50 is 12.8 µM.

**Q.** For `CC1(C)CCc2cc(/C=C3\OC(=O)C=C3c3ccc(O)cc3)ccc2O1`, which IC50 (K562) is on record?
**A.** Its IC50 is 10.1 µM.

**Q.** Which results are given for `O=C1O/C(=C\c2ccc(O)c(Br)c2)C(c2ccc(O)cc2)=C1Cl`?
**A.** IC50 (A549): 3.1 µM; IC50 (P388): 3.1 µM; IC50 (HT-29): 3.1 µM

**Q.** For `O=C1C=C(c2ccccc2)/C(=C/c2ccc3[nH]ccc3c2)O1`, which viability at 10 µM (U-87 MG [1]) is on record?
**A.** The viability at 10 µM was 103%.

**Q.** And the viability at 10 µM (MCF7 [2])?
**A.** The viability at 10 µM was 60.2%.

**Q.** And the viability at 10 µM (HCT-116 [3])?
**A.** Its viability at 10 µM is 98.9%.

**Q.** Which viability at 10 µM (U-87 MG [1]) does the source give for `Cc1ccc(/C=C2\OC(=O)C=C2c2ccccc2)cc1` here?
**A.** The viability at 10 µM was 101%.

**Q.** And the viability at 10 µM (MCF7 [2])?
**A.** Its viability at 10 µM is 87.4%.

**Q.** What about the viability at 10 µM (HCT-116 [3]) of the same molecule?
**A.** Its viability at 10 µM is 104%.

**Q.** Which results are given for `COc1ccc(C2=CC(=O)O/C2=C\c2ccc(C(=O)O)c(O)c2)cc1`?
**A.** viability at 10 µM (U-87 MG [1]): 106%; viability at 10 µM (MCF7 [2]): 40.7%; viability at 10 µM (HCT-116 [3]): 62.8%

**Q.** Which viability at 10 µM (U-87 MG [1]) does the source give for `COc1ccc(/C=C2\OC(=O)C=C2c2ccccc2)cc1` here?
**A.** The viability at 10 µM was 91.2%.

**Q.** What about the viability at 10 µM (MCF7 [2]) of the same molecule?
**A.** Its viability at 10 µM is 82.9%.

**Q.** What about the viability at 10 µM (HCT-116 [3]) of the same molecule?
**A.** The viability at 10 µM was 113%.
